Measured values: patent publication EP0178388A1, “Quinolinecarboxylic acid derivatives” (KYORIN PHARMACEUTICAL CO., LTD., priority 1984, dated 1986)
In brackets after ≈: the same amount, converted by molar mass. Counter-ions that a name gives are not always drawn. Like-named read-outs stand apart in the source and are kept apart here.

Experiments:
S. pneumoniae 15 = assay: In vitro antibacterial activity, MIC (clinical isolates); format: cell-based; details: Streptococcus pneumoniae; S. pneumoniae 15, 10^6 cells/ml, clinical isolate
P. morganii IID 602 = assay: In vitro antibacterial activity, MIC (standard strain); format: cell-based; details: Morganella morganii, IID602; P. morganii IID 602, 10^6 cells/ml, standard strain; read-out: MIC
[1] = system: Enterobacter cloacae IID 977; assay: as above; format: cell-based; details: IID977, Enterobacter cloacae IID 977, 10^6 cells/ml
S. faecalis 402 = assay: In vitro antibacterial activity, MIC (clinical isolates); format: cell-based; details: Enterococcus faecalis; S. faecalis 402, 10^6 cells/ml, clinical isolate
[2] = system: Pseudomonas aeruginosa V-1; assay: In vitro antibacterial activity, MIC (standard strain); format: cell-based; details: V1; Pseudomonas aeruginosa V-1, 10^6 cells/ml, standard strain; read-out: MIC
[3] = system: S. aureus IID 670 (Terajima); assay: as above; format: cell-based; details: Staphylococcus aureus, IID670, 10^6 cells/ml
[4] = system: Salmonella enteritidis IID 604; assay: as above; format: cell-based; details: Salmonella enterica; Salmonella enteritidis IID 604, 10^6 cells/ml, standard strain; read-out: MIC
E. coli ML4707 = assay: In vivo antibacterial activity against systemic infection in mice;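 also: ED50 in mg/kg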; details: Escherichia coli, ML4707, po, 1 h, E. coli ML4707, mice (ICR-S), intraperitoneal infection, oral at 1 hour after infection, read-out: ED50
Procedure: Experiment 2 In vivo antibacterial activity against systemic infection in mice (ICR-S)
The infections were produced by intraperitoneal infection of a suspension of the bacterial culture corresponding to the germ studied. The product was administered orally at 1 hour after the infection. The 50% effective dose (ED50) which protects 50% of the animals from death caused by the infection was determined from the relation between dosage and survival rate.

Shigella sonnei IID 969 = assay: In vitro antibacterial activity, MIC (standard strain); format: cell-based; details: IID969, Shigella sonnei IID 969, 10^6 cells/ml
Procedure: The in vitro antibacterial activity has been investigated, the minimun inhibitory concentration (MIC) was determined in accordance with the method recommended by Japan Society of Chemotherapy.

[5] = system: C. perfringens KYA (ATCC) 13123; assay: microbe, parasite or virus in culture; format: cell-based; details: Clostridium perfringens
S. agalactiae 4368 = assay: In vitro antibacterial activity, MIC (clinical isolates); format: cell-based; details: Streptococcus agalactiae; S. agalactiae 4368, 10^6 cells/ml, clinical isolate
B. fragilis 0558 = assay: In vitro antibacterial activity, MIC (standard strain); format: cell-based; details: Bacteroides fragilis; B. fragilis 0558, 10^6 cells/ml, standard strain; read-out: MIC
S. agalactiae 4394 = assay: In vitro antibacterial activity, MIC (clinical isolates); format: cell-based; details: Streptococcus agalactiae; S. agalactiae 4394, 10^6 cells/ml, clinical isolate
S. pyogenes 3130 = assay: as above; format: cell-based; details: Streptococcus pyogenes; S. pyogenes 3130, 10^6 cells/ml, clinical isolate
[6] = system: Veillonella parvula KYA 10790; assay: In vitro antibacterial activity, MIC (standard strain); format: cell-based; details: KYA10790, Veillonella parvula KYA 10790, 10^6 cells/ml
S. pneumoniae 2054 = assay: In vitro antibacterial activity, MIC (clinical isolates); format: cell-based; details: Streptococcus pneumoniae; S. pneumoniae 2054, 10^6 cells/ml, clinical isolate
S. faecalis 401 = assay: as above; format: cell-based; details: Enterococcus faecalis; S. faecalis 401, 10^6 cells/ml, clinical isolate
K. pneumoniae KY(GN)6445 = assay: In vitro antibacterial activity, MIC (standard strain); format: cell-based; details: Klebsiella pneumoniae
P. aeruginosa IFO 12689 = assay: as above; format: cell-based; details: Pseudomonas aeruginosa, IFO12689, P. aeruginosa IFO 12689, 10^6 cells/ml, standard strain; read-out: MIC
[7] = system: B. thetaiotaomicron (0661); assay: as above; format: cell-based; details: Bacteroides thetaiotaomicron; B. thetaiotaomicron (0661), 10^6 cells/ml, standard strain; read-out: MIC
S. pneumoniae IID 552 = assay: as above; format: cell-based; details: Streptococcus pneumoniae, IID552, S. pneumoniae IID 552, 10^6 cells/ml
[8] = system: Bacteroides fragilis GM 7000; assay: as above; format: cell-based; details: GM7000; Bacteroides fragilis GM 7000, 10^6 cells/ml, standard strain; read-out: MIC
[9] = system: Streptococcus pyogenes S-8; assay: as above; format: cell-based; details: S8, Streptococcus pyogenes S-8, 10^6 cells/ml
[10] = system: Serratia marcescens IID 618; assay: as above; format: cell-based; details: IID618, Serratia marcescens IID 618, 10^6 cells/ml, read-out: MIC
[11] = system: Clostridium difficile I-E; assay: as above; format: cell-based; details: Clostridioides difficile, 10^6 cells/ml
S. pyogenes 3107 = assay: In vitro antibacterial activity, MIC (clinical isolates); format: cell-based; details: Streptococcus pyogenes; S. pyogenes 3107, 10^6 cells/ml, clinical isolate
[12] = system: Klebsiella pneumoniae I-220S; assay: In vitro antibacterial activity, MIC (standard strain); format: cell-based; details: I220S; Klebsiella pneumoniae I-220S, 10^6 cells/ml, standard strain; read-out: MIC
S. faecalis 49 = assay: In vitro antibacterial activity, MIC (clinical isolates); format: cell-based; details: Enterococcus faecalis; S. faecalis 49, 10^6 cells/ml, clinical isolate
[13] = system: Peptostreptococcus anaerobius KYA 27337; assay: In vitro antibacterial activity, MIC (standard strain); format: cell-based; details: KYA27337, Peptostreptococcus anaerobius KYA 27337, 10^6 cells/ml
S. agalactiae 4342 = assay: In vitro antibacterial activity, MIC (clinical isolates); format: cell-based; details: Streptococcus agalactiae; S. agalactiae 4342, 10^6 cells/ml, clinical isolate
S. agalactiae 4049 = assay: as above; format: cell-based; details: Streptococcus agalactiae; S. agalactiae 4049, 10^6 cells/ml, clinical isolate
[14] = challenge dose 8.3 x 10^6 cfu/mouse (part 2)

SMILES	MIC (S. pneumoniae 15)	MIC (P. morganii IID 602)	MIC [1]	MIC (S. faecalis 402)	MIC [2]	MIC [3]	MIC [4]	ED50 (E. coli ML4707; [14])	MIC (Shigella sonnei IID 969)	MIC [5]	MIC (S. agalactiae 4368)	MIC (B. fragilis 0558)	MIC (S. agalactiae 4394)	MIC (S. pyogenes 3130)	MIC [6]	MIC (S. pneumoniae 2054)	MIC (S. faecalis 401)	MIC (P. aeruginosa IFO 12689)	MIC [7]	MIC (S. pneumoniae IID 552)	further results
CC1CN(c2c(F)cc3c(=O)c(C(=O)O)cn(C4CC4)c3c2F)CCN1 (stereo not drawn) [Example 2, l-Cyclopropyl-6,8-difluoro-l,4-dihydro-7-(3-methyl-l-piperazinyl)-4-oxoquinoline-3-carboxylic acid]	0.78 µg/mL (≈ 2.15 µM)	0.05 µg/mL (≈ 0.138 µM)	0.05 µg/mL (≈ 0.138 µM)	1.56 µg/mL (≈ 4.29 µM)	0.2 µg/mL (≈ 0.55 µM)	0.2 µg/mL (≈ 0.55 µM)	0.025 µg/mL (≈ 0.0688 µM)	0.17 mg/kg	0.0125 µg/mL (≈ 0.0344 µM)	0.78 µg/mL (≈ 2.15 µM)	0.78 µg/mL (≈ 2.15 µM)	0.78 µg/mL (≈ 2.15 µM)	1.56 µg/mL (≈ 4.29 µM)	0.78 µg/mL (≈ 2.15 µM)	0.2 µg/mL (≈ 0.55 µM)	1.56 µg/mL (≈ 4.29 µM)	1.56 µg/mL (≈ 4.29 µM)	0.78 µg/mL (≈ 2.15 µM)	3.13 µg/mL (≈ 8.61 µM)	0.78 µg/mL (≈ 2.15 µM)	ED50 (E. coli ML4707; challenge dose 6.0 x 10^6 cfu/mouse (part 1)): 0.09 mg/kg; MIC (K. pneumoniae KY(GN)6445): 0.0125 µg/mL (≈ 0.0344 µM); MIC [8]: 1.56 µg/mL (≈ 4.29 µM); MIC [9]: 0.78 µg/mL (≈ 2.15 µM); MIC [10]: 0.05 µg/mL (≈ 0.138 µM); MIC [11]: 6.25 µg/mL (≈ 17.2 µM); MIC (S. pyogenes 3107): 0.78 µg/mL (≈ 2.15 µM); MIC [12]: 0.05 µg/mL (≈ 0.138 µM); MIC (S. faecalis 49): 0.78 µg/mL (≈ 2.15 µM); MIC [13]: 1.56 µg/mL (≈ 4.29 µM); MIC (S. agalactiae 4342): 0.78 µg/mL (≈ 2.15 µM); MIC (S. agalactiae 4049): 1.56 µg/mL (≈ 4.29 µM)
CC1CN(c2c(F)cc3c(=O)c(C(=O)O)cn(C4CC4)c3c2Cl)CCN1 (stereo not drawn) [Example 5, 8-Chloro-l-cyclopropyl-6-fluoro-1,4-dihydro-7-(3-methyl-1-piperazinyl)-4-oxoquinoline-3-carboxylic acid hydrochloride]	0.78 µg/mL	0.1 µg/mL	0.05 µg/mL	0.78 µg/mL	0.78 µg/mL	0.1 µg/mL	0.025 µg/mL	0.12 mg/kg	0.0125 µg/mL	0.78 µg/mL	0.39 µg/mL	0.2 µg/mL	0.78 µg/mL	0.39 µg/mL	0.2 µg/mL	0.78 µg/mL	0.78 µg/mL	1.56 µg/mL	1.56 µg/mL	0.78 µg/mL	MIC (K. pneumoniae KY(GN)6445; K. pneumoniae KY(GN)6445, 10^6 cells/ml, standard strain, read-out: MIC): 0.025 µg/mL; MIC [8]: 0.39 µg/mL; MIC [9]: 0.39 µg/mL; MIC [10]: 0.05 µg/mL; MIC [11]: 3.13 µg/mL; MIC (S. pyogenes 3107): 0.39 µg/mL; MIC [12]: 0.05 µg/mL; MIC (S. faecalis 49): 0.78 µg/mL; MIC [13]: 0.39 µg/mL; MIC (S. agalactiae 4342): 0.78 µg/mL; MIC (S. agalactiae 4049): 0.78 µg/mL
